Laboratory results published in patent publication US20090082304A1, “Methods of Treating Hematological Malignancies with Nucleoside Analog Drugs” (NORTHWESTERN UNIVERSITY, priority 2004, published 2009).

Key:
[1] = test system: Akt kinase; assay: Immunoblot of phospho-Akt in MM.1 S cells; format: cell-based; details: 10 μM
Method: 5×10^6 were cells treated with 10 μM 8-NH2-Ado for the indicated times and harvested. Cell pellets were washed with cold phosphate-buffered saline (PBS; 8.1 g NaCl, 1.14 g Na2HPO4, 0.22 g KCl, and 0.25 g/L KH2PO4) and incubated with lysis buffer (50 mM HEPES, 150 mM NaCl, 1.5 mM MgCl2, 1 mM EDTA pH 8.0, 100 mM NaFI, 10 mM Na Pyrophosphate, 500 μM PMSF, 0.5% Triton X-100, 10% glycerol) at 4° C. for one hour. Lysates were centrifuged at 4° C. for 1 minute at 9000×g, and the supernatants were collected and stored at −20° C. Protein concentration was determined by Bio-Rad protein assay (BioRad Laboratories, Hercules, Calif.). Protein, at a concentration of 30 μg, was mixed with sample buffer (125 mM Tris, pH 6.8, 4% SDS, 20% glycerol, 100 mM Dithiothreitol (DTT), and 0.05% bromophenol blue), and fractionated on a pre-cast 8-16% Tris-Glycine gel (Invitrogen/Novex, Carlsbad, Calif.). Proteins were then transferred to a Polyvinylidene Fluoride (PVDF) membrane (Immobilon-P, Millipore, Bedford, Mass.): Following protein transfer, membranes were blocked with 5% non-fat milk in PBS-T (PBS with 0.1% Tween), incubated with the primary antibody overnight at 4° C. and subsequently with horseradish peroxidase linked secondary antibody (Amersham, Arlington Heights, Ill.). Blots were developed using ECL Plus Chemiluminescent Western Blotting Detection reagent (Amersham, Arlington Heights, Ill.) and the signal was visualized with X-ray film (Hyperfilm, Amersham, Arlington Heights, Ill.). For reprobing purposes, blots were stripped using Restore Western Blot Stripping Buffer from Pierce Biotechnology (Rockford, Ill.). Phospho-MKK3/6 (Ser189/207), phospho-p38 (Thr180/Tyr182), phospho-ATF-2 (Thr69/71), phospho-c-Raf (Ser259), phospho-MEK1/2 (Ser217/221), total MEK1/2, phospho-ERK1/2 (Thr202/Tyr204), total ERK1/2, phospho-p90RSK (Ser380), total RSK, phospho-PDK1 (Ser241), total PDKI, phospho-PTEN (Ser380), total PTEN, phospho-Akt (Ser473), total Akt, phospho-GSK-3β (Ser9), total GSK-3β, phospho-FKHRLI (Thr32)/-FKHR (Thr24), phospho-FKHR (Ser256) primary antibodies were obtained from Cell Signaling Technology (Beverly, Mass.). Total MKK3, total MKK6, total p38, total ATF-2, total c-Raf, total FKHR, total FKHRLI, phospho-JNK and total JNK were purchased from Santa Cruz Biotechnology (Santa Cruz, Calif.). Caspase 3, caspase 9, and PARP antibodies were obtained from Pharmingen (San Diego, Calif.) and anti-MKP1 from Upstate (Lake Placid, N.Y.). Anti-caspase 8 mouse serum was a generous gift of Dr. Marcus Peter (University of Chicago).
MM.1 S cells were exposed to 10 μM 8-NH2-Ado for 0, 0.5, 1, 2, 4 and 6 hours, after which cells were lysed as previously (Example 2). 30 μg of protein was separated by gel electrophoresis, transferred to PVDF membrane, and probed with phosphorylation-specific antibodies to MKK3/6, p38 MAPK, ATF-2, MEK1/2, ERK1/2, p90RSK, JNK1, PDK1, Akt, FKHRL1 and GSK-3β.
MM. I S cells were treated with 10 μM 8-chloro-adenosine for 0, 0.5, 1, 2, 4 or 6 hours or 10 μM of cytarabine, fludarabine, gemcitabine or 8-amino-adenosine for 4 hours. Cells were lysed as previously described and 30 μg of protein was separated by gel electrophoresis, transferred to PVDF membrane, and probed with phospho-p38 MAPK (Thr180/Tyr182) antibody.
MM.1 S cells were grown in dextrose-free media and treated with 2 μM Antimycin A, 5 mM 2-DOG, and varying concentrations of dextrose for 90 minutes. Cellular ATP levels were determined using triplicate samples in a luciferase based assay and are expressed here as a percentage of untreated control.

[2] = test system: endogenous ATP; assay: Endogenous ATP pools; format: cell-based
Method: MM.IS cells were grown in dextrose-free RPMI-1640 media (Invitrogen, Baltimore, Md.) supplemented with 10% fetal bovine serum, 2 mM glutamine, 100 units/ml penicillin, 100 μg/ml streptomycin and 2.5 μg/ml fungizone. Cellular ATP levels were manipulated by the addition of either antimycin (2 μM, a mitochondrial inhibitor) or 2-deoxy-D-glucose (2-DOG, 5 mM, an inhibitor of glycolysis) from Sigma (St. Louis, Mo.) with and without varying concentrations of dextrose. Six different metabolic conditions were examined: 1) antimycin without dextrose, 2) antimycin+0.25 mM dextrose, 3) antimycin+1 mM dextrose, 4) antimycin+10 mM dextrose, 5) 2-DOG without dextrose, 6) 2-DOG+10 mM dextrose. Control cells were not subjected to ATP depletion; 10 mM dextrose was added to dextrose-free RMPI-1640. Endogenous ATP was measured in a luciferase-based assay using the ATP Determination Kit from Molecular Probes (Eugene, Oreg.) and the levels corresponding to each treatment were normalized to untreated controls (20).

[3] = test system: MM cells; details: cited from earlier work
[4] = test system: MKP1; assay: Immunoblot of MKP1 in MM.1 S cells; format: cell-based; details: 10 μM, 0-6 hours
Method: 5×10^6 were cells treated with 10 μM 8-NH2-Ado for the indicated times and harvested. Cell pellets were washed with cold phosphate-buffered saline (PBS; 8.1 g NaCl, 1.14 g Na2HPO4, 0.22 g KCl, and 0.25 g/L KH2PO4) and incubated with lysis buffer (50 mM HEPES, 150 mM NaCl, 1.5 mM MgCl2, 1 mM EDTA pH 8.0, 100 mM NaFI, 10 mM Na Pyrophosphate, 500 μM PMSF, 0.5% Triton X-100, 10% glycerol) at 4° C. for one hour. Lysates were centrifuged at 4° C. for 1 minute at 9000×g, and the supernatants were collected and stored at −20° C. Protein concentration was determined by Bio-Rad protein assay (BioRad Laboratories, Hercules, Calif.). Protein, at a concentration of 30 μg, was mixed with sample buffer (125 mM Tris, pH 6.8, 4% SDS, 20% glycerol, 100 mM Dithiothreitol (DTT), and 0.05% bromophenol blue), and fractionated on a pre-cast 8-16% Tris-Glycine gel (Invitrogen/Novex, Carlsbad, Calif.). […]
One possible mechanism for the decrease in phosphorylation of the kinase molecules and their substrates is an increase in the activity of the phosphatase(s) that regulate them. To test this hypothesis, levels of MKPI, a dual specificity phosphatase that can act to dephosphorylate p38 MAPK, were assessed MM.1 S cells were exposed to 10 μM 8-NH2-Ado for 0, 0.5, 1, 2, 4 and 6 hours after which cells were lysed as previously described. […]

[5] = test system: p90RSK; assay: Immunoblot of phospho-p90RSK in MM.1 S cells; format: cell-based; details: 10 μM, 0-6 hours
Method: (§1) 5×10^6 were cells treated with 10 μM 8-NH2-Ado for the indicated times and harvested. Cell pellets were washed with cold phosphate-buffered saline (PBS; 8.1 g NaCl, 1.14 g Na2HPO4, 0.22 g KCl, and 0.25 g/L KH2PO4) and incubated with lysis buffer (50 mM HEPES, 150 mM NaCl, 1.5 mM MgCl2, 1 mM EDTA pH 8.0, 100 mM NaFI, 10 mM Na Pyrophosphate, 500 μM PMSF, 0.5% Triton X-100, 10% glycerol) at 4° C. for one hour. Lysates were centrifuged at 4° C. for 1 minute at 9000×g, and the supernatants were collected and stored at −20° C. Protein concentration was determined by Bio-Rad protein assay (BioRad Laboratories, Hercules, Calif.). Protein, at a concentration of 30 μg, was mixed with sample buffer (125 mM Tris, pH 6.8, 4% SDS, 20% glycerol, 100 mM Dithiothreitol (DTT), and 0.05% bromophenol blue), and fractionated on a pre-cast 8-16% Tris-Glycine gel (Invitrogen/Novex, Carlsbad, Calif.). Proteins were then transferred to a Polyvinylidene Fluoride (PVDF) membrane (Immobilon-P, Millipore, Bedford, Mass.): Following protein transfer, membranes were blocked with 5% non-fat milk in PBS-T (PBS with 0.1% Tween), incubated with the primary antibody overnight at 4° C. and subsequently with horseradish peroxidase linked secondary antibody (Amersham, Arlington Heights, Ill.). […]

[6] = test system: ATF-2; assay: Immunoblot of phospho-ATF-2 in MM.1 S cells; format: cell-based; details: 10 μM, by 2 hours
Method: as §1

[7] = test system: FKHR; assay: Immunoblot of phospho-FKHR in MM.1 S cells; format: cell-based; details: 10 μM, data not shown
Method: as §1

Q: With `Nc1ncnc2c1nc(N)n2[C@@H]1O[C@H](CO)[C@@H](O)[C@H]1O` [8-NH2-Ado, 8-amino-adenosine] as the compound, how does the “phosphorylation of Akt” value ([1]; 4 hours, data not shown) read?
A: The value was “dramatic loss of phosphorylation”.

Q: What about the Phospho-Akt levels ([1]; by 2 hours) of the same compound?
A: The Phospho-Akt levels was “decrease significantly”.

Q: What about the Phospho-Akt levels ([1]; eventually (after 2 hours)) of the same compound?
A: Its Phospho-Akt levels is “decline further to negligible levels”.

Q: What about the “endogenous ATP pools” value [2] of the same compound?
A: Its value is “dramatic shifts”.

Q: And the cytotoxicity [3]?
A: The cytotoxicity was “affected by the cytotoxic ability”.

Q: And the MKP1 levels [4]?
A: Its MKP1 levels is “unaltered”.

Q: What about the “phosphorylation level of p90RSK” value [5] of the same compound?
A: Its value is “modestly decrease”.

Q: What about the “levels of phosphorylated ATF-2” value [6] of the same compound?
A: The value was “falling considerably”.

Q: And the FKHR phosphorylation [7]?
A: Its FKHR phosphorylation is “similarly affected”.
